Here are results for nine compounds from US12599672B2, “KRAS proteolysis targeting chimeras” (PAQ Therapeutics Inc., priority 2023, dated 2026).

Bounds are passed on as bounds.

Common to all, as to assay type: cell-based
One experiment concerns the target T1, KRAS (Homo sapiens, UniProt P01116).
T1 construct: endogenous in cells; host or cells: KE39 (KRAS amplified) cells
The experiment in a line: KRASamp MSD assay. The conditions noted are these: KE39 (KRAS amplified) cells, treated with test compounds for 24 hr, MSD readout of KRAS degradation. In a few lines: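 KRAS-amplified KE39 cells treated with compound for 24 hr, then lysed in RIPA buffer with protease/phosphatase inhibitors. KRAS protein measured by MSD sandwich immunoassay against a recombinant WT KRAS standard curve; DC50 derived from curve fitting of degradation.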

The next experiment deals with T2, KRAS G12V (Homo sapiens, UniProt P01116, G12V).
T2 construct: SW620-KRAS (G12V)-HiBit-KI cell (Pharmaron); host or cells: SW620-KRAS (G12V)-HiBit-KI cells (HiBiT knock-in at the endogenous KRAS locus)
The experiment in a line: KRAS G12V HiBit assay. The conditions noted are these: SW620-KRAS (G12V)-HiBit-KI cells, compound treatment for 24 hours, class symbols. Summed up:
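HiBiT-tagged KRAS G12V cells treated 24 h with compound in a 3-fold, 10-point series (0.3 mM DMSO stock); lytic HiBiT reagent with LgBiT added after 15 min room-temperature equilibration. Degradation calculated against 0.1% DMSO high control.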
On the technique in general: The HiBiT peptide binds its large partner to form an active luciferase.

The target in a further experiment is T3, KRAS G12D (Homo sapiens, UniProt P01116, G12D).
T3 construct: AsPc-1-KRAS (G12D)-HiBit-KI cell (Pharmaron); host or cells: AsPc-1-KRAS (G12D)-HiBit-KI cells (HiBiT knock-in at the endogenous KRAS locus)
The experiment in a line: KRAS G12D HiBit assay. The conditions noted are these: AsPc-1-KRAS (G12D)-HiBit-KI cell, compound treatment for 24 hours, class symbols; for DC50: absolute DC50. Summed up:
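Cells were treated for 24 h with compounds in a 3-fold, 10-point dilution series from a 0.3 mM DMSO stock, then equilibrated 15 min at room temperature. KRAS G12D HiBiT levels were read by luminescence after lytic Nano-Glo HiBiT reagent with LgBiT; inhibition calculated relative to 0.1% DMSO high control.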

T2 sequence (P01116 1-188 isoform P01116-2 G12V): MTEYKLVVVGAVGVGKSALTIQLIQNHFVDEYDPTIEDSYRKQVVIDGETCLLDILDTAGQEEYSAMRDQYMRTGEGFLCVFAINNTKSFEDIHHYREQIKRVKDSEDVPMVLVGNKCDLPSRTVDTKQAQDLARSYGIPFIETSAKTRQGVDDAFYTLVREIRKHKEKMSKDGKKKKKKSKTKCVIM
T3 sequence (P01116 1-188 isoform P01116-2 G12D): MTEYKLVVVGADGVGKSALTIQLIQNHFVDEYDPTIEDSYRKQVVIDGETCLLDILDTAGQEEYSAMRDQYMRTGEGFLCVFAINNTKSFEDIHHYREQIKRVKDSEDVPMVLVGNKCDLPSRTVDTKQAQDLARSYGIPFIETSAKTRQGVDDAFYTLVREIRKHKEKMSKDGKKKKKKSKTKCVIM
T1 sequence (P01116 1-188 isoform P01116-2): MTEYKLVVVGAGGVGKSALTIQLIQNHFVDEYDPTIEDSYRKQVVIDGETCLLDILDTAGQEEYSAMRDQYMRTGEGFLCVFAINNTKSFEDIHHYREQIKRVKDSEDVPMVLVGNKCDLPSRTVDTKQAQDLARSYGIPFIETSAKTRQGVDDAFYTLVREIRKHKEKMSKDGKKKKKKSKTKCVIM

With `CCc1c(F)ccc2cc(O)cc(-c3ncc4c(N5CCC[C@@](C)(O)C5)nc(OC[C@@]56CCCN5[C@H](COC(=O)N5CCC7(CC5)CC(CN5CCC(c8ccc9c(c8)n(C)c(=O)n9C8CCC(=O)NC8=O)CC5)C7)CC6)nc4c3F)c12` (stereo partly drawn) [Compound 417, ((3S,7aS)-7a-(((7-(8-ethyl-7-fluoro-3-hydroxynaphthalen-1-yl)-8-fluoro-4-((R)-3-hydroxy-3-methylpiperidin-1-yl)pyrido[4,3-d]pyrimidin-2-yl)oxy)methyl)hexahydro-1H-pyrrolizin-3-yl)methyl 2-((4-(1-(2,6-dioxopiperidin-3-yl)-3-methyl-2-oxo-2,3-dihydro-1H-benzo[d]imidazol-5-yl)piperidin-1-yl)methyl)-7-azaspiro[3.5]nonane-7-carboxylate], the DC50 at KRAS is under 1 nM; at KRAS G12V it was under 10 nM; on KRAS G12D it was under 100 nM.

In the case of `CCc1c(F)ccc2cc(O)cc(-c3ncc4c(N5CCC[C@@](C)(O)C5)nc(OC[C@@]56CCCN5[C@H](COC(=O)N5CCC(CC7CCN(c8ccc9c(c8)n(C)c(=O)n9C8CCC(=O)NC8=O)CC7)CC5)CC6)nc4c3F)c12` (stereo partly drawn) [Compound 98, [(3S,8S)-8-[[7-(8-ethyl-7-fluoro-3-hydroxy-1-naphthyl)-8-fluoro-4-[(3R)-3-hydroxy-3-methyl-1-piperidyl]pyrido[4,3-d]pyrimidin-2-yl]oxymethyl]-1,2,3,5,6,7-hexahydropyrrolizin-3-yl]methyl 4-[[1-[1-(2,6-dioxo-3-piperidyl)-3-methyl-2-oxo-benzimidazol-5-yl]-4-piperidyl]methyl]piperidine-1-carboxylate], the figures for the DC50 at KRAS, on KRAS G12V and on KRAS G12D were under 1 nM, under 10 nM and under 100 nM, respectively. On KRAS G12D, this compound showed a Dmax of over 50%.

Consider `C#Cc1c(F)ccc2cc(O)cc(-c3ncc4c(N5CCC[C@@](C)(O)C5)nc(OC[C@@]56CCCN5[C@H](COC(=O)N5CCC7(CC5)CC(N5CCC(c8cccc9c8n(C)c(=O)n9C8CCC(=O)NC8=O)CC5)C7)CC6)nc4c3F)c12` (stereo partly drawn) [Compound 387, ((3S,7aS)-7a-(((7-(8-ethynyl-7-fluoro-3-hydroxynaphthalen-1-yl)-8-fluoro-4-((R)-3-hydroxy-3-methylpiperidin-1-yl)pyrido[4,3-d]pyrimidin-2-yl)oxy)methyl)hexahydro-1H-pyrrolizin-3-yl)methyl 2-(4-(1-(2,6-dioxopiperidin-3-yl)-3-methyl-2-oxo-2,3-dihydro-1H-benzo[d]imidazol-4-yl)piperidin-1-yl)-7-azaspiro[3.5]nonane-7-carboxylate], for which the DC50 on KRAS was at least 10 nM; at KRAS G12V, under 10 nM; at KRAS G12D it was under 100 nM.

With `Cn1c(=O)n(C2CCC(=O)NC2=O)c2ccc(C3CCN(C4CC5(CCN(C(=O)OC[C@@H]6CC[C@]7(COc8nc(N9CCC[C@@](C)(O)C9)c9cnc(-c%10cc(O)cc%11ccc(F)cc%10%11)cc9n8)CCCN67)CC5)C4)CC3)cc21` (stereo partly drawn) [Compound 474, ((3S,7aS)-7a-(((7-(7-fluoro-3-hydroxynaphthalen-1-yl)-4-((R)-3-hydroxy-3-methylpiperidin-1-yl)pyrido[4,3-d]pyrimidin-2-yl)oxy)methyl)hexahydro-1H-pyrrolizin-3-yl)methyl 2-(4-(1-(2,6-dioxopiperidin-3-yl)-3-methyl-2-oxo-2,3-dihydro-1H-benzo[d]imidazol-5-yl)piperidin-1-yl)-7-azaspiro[3.5]nonane-7-carboxylate], the values for the DC50 on KRAS, at KRAS G12V and at KRAS G12D were under 1 nM, under 10 nM and under 100 nM, respectively.

On to `C#Cc1c(F)ccc2cc(O)cc(-c3ncc4c(N5CCC[C@@](C)(O)C5)nc(OCC5(CN6CCC7(CC6)CC(N6CCN(c8ccc9c(c8)n(C)c(=O)n9C8CCC(=O)NC8=O)CC6)C7)CC5)nc4c3F)c12` (some centres unmarked) [Compound 56], for which the DC50 on KRAS is under 1 nM; at KRAS G12V, under 10 nM; on KRAS G12D, under 100 nM.

`C#Cc1c(F)ccc2cc(O)cc(-c3ncc4c(N5CCC[C@@](C)(O)C5)nc(OCC5(CN6CCC7(CC6)CC(N6CCC(c8cccc9c8n(C)c(=O)n9C8CCC(=O)NC8=O)CC6)C7)CC5)nc4c3F)c12` (some centres unmarked) [Compound 64]: the DC50 on KRAS was under 1 nM; at KRAS G12V, under 10 nM; on KRAS G12D, under 100 nM.

As to `CCc1c(F)ccc2cc(O)cc(-c3ncc4c(N5CCC[C@](C)(O)C5)nc(OC[C@]56CCCN5[C@@H](COC(=O)N5CC7CCC(C5)C7CN5CCC(c7ccc8c(c7)n(C)c(=O)n8C7CCC(=O)NC7=O)CC5)CC6)nc4c3F)c12` (stereo partly drawn) [Compound 391, ((3R,7aR)-7a-(((7-(8-ethyl-7-fluoro-3-hydroxynaphthalen-1-yl)-8-fluoro-4-((S)-3-hydroxy-3-methylpiperidin-1-yl)pyrido[4,3-d]pyrimidin-2-yl)oxy)methyl)hexahydro-1H-pyrrolizin-3-yl)methyl 8-((4-(1-(2,6-dioxopiperidin-3-yl)-3-methyl-2-oxo-2,3-dihydro-1H-benzo[d]imidazol-5-yl)piperidin-1-yl)methyl)-3-azabicyclo[3.2.1]octane-3-carboxylate], the DC50 at KRAS is under 1 nM; on KRAS G12V, under 10 nM; at KRAS G12D, under 100 nM.

In the case of `C#Cc1c(F)ccc2cc(O)cc(-c3ncc4c(N5CCC[C@@](C)(O)C5)nc(OC[C@@]56CCCN5[C@H](COC(=O)N5CCC(CN7CCC(c8ccc9c(c8)n(C)c(=O)n9C8CCC(=O)NC8=O)CC7)CC5)CC6)nc4c3F)c12` (stereo partly drawn) [Compound 4, [(3S,8S)-8-[[7-(8-Ethynyl-7-fluoro-3-hydroxy-1-naphthyl)-8-fluoro-4-[(3R)-3-hydroxy-3-methyl-1-piperidyl]pyrido[4,3-d]pyrimidin-2-yl]oxymethyl]-1,2,3,5,6,7-hexahydropyrrolizin-3-yl]methyl4-[[4-[1-(2,6-dioxo-3-piperidyl)-3-methyl-2-oxo-benzimidazol-5-yl]-1-piperidyl]methyl]piperidine-1-carboxylate], the DC50 at KRAS was under 1 nM; on KRAS G12V it was under 10 nM; at KRAS G12D it was under 100 nM. For the same compound, the “Average Dmax” value on KRAS G12D is listed as “A (Dmax greater than 50%)”.

Consider `C#Cc1c(F)ccc2cc(O)cc(-c3ncc4c(N5CCC[C@@](C)(O)C5)nc(OC[C@@]56CCCN5[C@H](COC(=O)N5CCC7(CCC(N8CCC(c9ccc%10c(c9)n(C)c(=O)n%10C9CCC(=O)NC9=O)CC8)CC7)CC5)CC6)nc4c3F)c12` (stereo partly drawn) [Compound 413, ((3S,7aS)-7a-(((7-(8-ethynyl-7-fluoro-3-hydroxynaphthalen-1-yl)-8-fluoro-4-((R)-3-hydroxy-3-methylpiperidin-1-yl)pyrido[4,3-d]pyrimidin-2-yl)oxy)methyl)hexahydro-1H-pyrrolizin-3-yl)methyl 9-(4-(1-(2,6-dioxopiperidin-3-yl)-3-methyl-2-oxo-2,3-dihydro-1H-benzo[d]imidazol-5-yl)piperidin-1-yl)-3-azaspiro[5.5]undecane-3-carboxylate], for which the values for the DC50 at KRAS, on KRAS G12V and on KRAS G12D were under 1 nM, under 10 nM and under 100 nM, respectively.
